The subject of this experiment is mice. The experiment is described as follows: Neuropharmacological Assay (SmartCube): automated behavioral signature of compound-treated mice compared with a database of reference drug classes. It is filed as in vivo. As to conditions: for AD / AG / AN / CE / HL / MS / PS / SH / UK / AP / AX: SmartCube class probability, 3.0 mg/kg i.p., 15 min before test; for MED / minimal effective dose: minimal effective dose: dose having 45% or more total activity in SmartCube, i.p., if only one dose tested, that dose is shown; for minimal effective dose: Mus musculus, ip, read-out: MED. In short, it runs like this: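 Probabilities of matching each neuropharmacological class (e.g. anxiolytic, antidepressant) come from algorithmic analysis of digitally recorded behaviour, reported for 3.0 mg/kg. Compounds were given intraperitoneally in a Pharmasolve/PEG/propylene glycol vehicle 15 min pre-test. Minimal effective dose is the lowest dose reaching 45% or more total activity.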

Here are results for 13 compounds from patent US20260274814A1, “THIENYL COMPOUNDS FOR THE TREATMENT OF A CENTRAL NERVOUS SYSTEM DISEASE OR DISORDER” (Coreterra Therapeutics, Inc., priority 2023, published 2026).

The structures appear in SMILES notation. Structures can show the parent of a compound that is named as a salt.

For the compound `CCNC1CCc2cscc2C1` (single isomer, unassigned) [Compound 172, N-ethyl-4,5,6,7-tetrahydro-2-benzothiophen-5-amine hydrochloride], the AD result was “ND (^ <4%)”, the AG entry is listed as “ND (^ <4%)”, the AN entry is “ND (^ <4%)” and the CE result was “ND (^ <4%)”. The HL result is listed as “ND (^ <4%)”, the MS result was “ND (^ <4%)”, the PS result was “ND (^ <4%)” and the SH result is on record as “ND (^ <4%)”. The UK result is reported as “ND (^ <4%)”. Further, under “hydrochloride, 3 mg/kg”, the AP entry is listed as “ND (^ <4%)” and the AX result is “++++ (≥74%)”. Further, where the note is “hydrochloride”, the MED was 1 mpk.

Turning to `CNC1CCc2scc(C#N)c2C1` (single isomer, unassigned) [Compound 174, 5-(methylamino)-4,5,6,7-tetrahydrobenzothiophene-3-carbonitrile hydrochloride], the AD result is “ND (^ <4%)”, the AG result is reported as “ND (^ <4%)”, the AN entry was “ND (^ <4%)” and the AP entry is given as “ND (^ <4%)”. The CE result is recorded as “ND (^ <4%)”, the HL entry is listed as “ND (^ <4%)”, the MS result is recorded as “ND (^ <4%)” and the PS entry is recorded as “ND (^ <4%)”. The SH result is listed as “+ (≥4%)” and the UK entry is recorded as “ND (^ <4%)”. Moreover, the AX result (hydrochloride, 3 mg/kg) was “ND (^ <4%)”. In addition, the MED (hydrochloride) came out at 1 mpk.

In the case of `CNC1CCc2scc(C#N)c2C1` (single isomer, unassigned) [Compound 175, 5-(methylamino)-4,5,6,7-tetrahydrobenzothiophene-3-carbonitrile hydrochloride], the AD entry was “ND (^ <4%)”, the AG entry was “ND (^ <4%)”, the AN result was “ND (^ <4%)” and the AP entry was “ND (^ <4%)”. In addition, the CE result is listed as “ND (^ <4%)”, the HL result is given as “ND (^ <4%)”, the MS entry is recorded as “ND (^ <4%)” and the PS result is recorded as “ND (^ <4%)”. Moreover, the SH result was “+ (≥4%)” and the UK entry is given as “ND (^ <4%)”. The AX entry (hydrochloride, 3 mg/kg) is given as “+++ (≥49%)”. The same compound gave an MED (hydrochloride) of 3 mpk.

In the case of `N#Cc1csc2c1CC(N)CC2` (single isomer, unassigned) [Compound 176, 5-amino-4,5,6,7-tetrahydrobenzo[b]thiophene-3-carbonitrile hydrochloride], the minimal effective dose is > 3 mg/kg, the AD entry is recorded as “ND (^ <4%)”, the AG entry was “ND (^ <4%)” and the AN entry is “ND (^ <4%)”. For the same compound, the AP result was “ND (^ <4%)”, the AX entry is “ND (^ <4%)”, the CE result is on record as “ND (^ <4%)” and the HL entry was “ND (^ <4%)”. Besides, the MS entry was “ND (^ <4%)”, the PS result is given as “ND (^ <4%)” and the SH result was “ND (^ <4%)”. For the same compound, the UK entry (hydrochloride, 3 mg/kg) is “ND (^ <4%)”.

For the compound `N#Cc1csc2c1CC(N)CC2` (single isomer, unassigned) [Compound 177, 5-amino-4,5,6,7-tetrahydrobenzo[b]thiophene-3-carbonitrile hydrochloride], the AD entry is on record as “ND (^ <4%)”, the AG entry is listed as “ND (^ <4%)”, the AN entry is “ND (^ <4%)” and the AP entry is “ND (^ <4%)”. The AX result is reported as “ND (^ <4%)”, the CE entry is “ND (^ <4%)”, the HL entry is recorded as “ND (^ <4%)” and the MS entry is given as “ND (^ <4%)”. The PS result is recorded as “ND (^ <4%)” and the SH entry was “ND (^ <4%)”. Moreover, where the note is “hydrochloride, 3 mg/kg”, the UK result is given as “++++ (≥74%)”. Moreover, for the setting “hydrochloride”, the MED was 3 mpk.

Consider `CNC1(C)CCc2sccc2C1` (single isomer, unassigned) [Compound 178, N, 5-dimethyl-6,7-dihydro-4H-benzothiophen-5-amine hydrochloride], for which the AG entry is “ND (^ <4%)”, the AP result was “ND (^ <4%)”, the AX entry is “ND (^ <4%)” and the CE result is “ND (^ <4%)”. The HL entry is “ND (^ <4%)”, the MS entry is listed as “ND (^ <4%)”, the SH entry is “ND (^ <4%)” and the UK entry was “ND (^ <4%)”. In addition, where the note is “hydrochloride, 3 mg/kg”, the AD entry was “+ (≥4%)”, the AN entry is recorded as “ND (^ <4%)” and the PS result is given as “++++ (≥74%)”. The MED (hydrochloride) was 1 mpk.

Take `CNC1(C)CCc2sccc2C1` (single isomer, unassigned) [Compound 179, N, 5-dimethyl-6,7-dihydro-4H-benzothiophen-5-amine hydrochloride]: the AG result is “ND (^ <4%)”, the AP result is “ND (^ <4%)”, the AX entry is on record as “ND (^ <4%)” and the CE entry is “ND (^ <4%)”. Also, the HL result is recorded as “ND (^ <4%)”, the MS result is “ND (^ <4%)”, the SH entry is on record as “ND (^ <4%)” and the UK entry is reported as “ND (^ <4%)”. Further, under “hydrochloride, 3 mg/kg”, the AD result was “+++ (≥49%)”, the AN result is “+ (≥4%)” and the PS result is “+ (≥4%)”. Also, the MED (hydrochloride) turned out to be 3 mpk.

`CNC1CCc2sc(C3CC3)cc2C1` (single isomer, unassigned) [Compound 183, 2-cyclopropyl-N-methyl-4,5,6,7-tetrahydrobenzothiophen-5-amine hydrochloride]: the minimal effective dose was determined as 3 mg/kg, the AD entry is listed as “ND (^ <4%)”, the AG entry was “ND (^ <4%)” and the AN entry was “ND (^ <4%)”. The AP entry is “ND (^ <4%)”, the AX entry is on record as “ND (^ <4%)”, the CE entry was “ND (^ <4%)” and the HL entry is “ND (^ <4%)”. The MS result is recorded as “ND (^ <4%)”, the PS result is on record as “ND (^ <4%)”, the SH entry is given as “ND (^ <4%)” and the UK entry is reported as “++ (≥24%)”.

Regarding `CNC1CCc2sc(C3CC3)cc2C1` (single isomer, unassigned) [Compound 184, 2-cyclopropyl-N-methyl-4,5,6,7-tetrahydrobenzothiophen-5-amine hydrochloride], the AD entry is given as “ND (^ <4%)”, the AG result is “ND (^ <4%)”, the AN entry was “ND (^ <4%)” and the AP entry is “ND (^ <4%)”. The AX result is “ND (^ <4%)”, the CE entry is listed as “ND (^ <4%)”, the HL entry was “ND (^ <4%)” and the MS result is “ND (^ <4%)”. Also, the PS result was “ND (^ <4%)”, the SH entry was “ND (^ <4%)” and the UK result is “++ (≥24%)”. In addition, the MED (hydrochloride) is given as >3 mpk.

On to `NC1CCc2scc(F)c2C1` (single isomer, unassigned) [Compound 191, 3-fluoro-4,5,6,7-tetrahydrobenzothiophen-5-amine hydrochloride], for which the AX result is given as “ND (^ <4%)”, the HL entry is given as “ND (^ <4%)”, the MS entry was “ND (^ <4%)” and the SH result is “ND (^ <4%)”. For the same compound, under “hydrochloride, 3 mg/kg”, the AD entry is “++ (≥24%)”, the AG result is listed as “+ (≥4%)”, the AN entry is listed as “+ (≥4%)” and the AP entry is “+ (≥4%)”. Also, under “hydrochloride, 3 mg/kg”, the CE entry was “+ (≥4%)”, the PS result is recorded as “+ (≥4%)” and the UK entry was “ND (^ <4%)”. For the setting “hydrochloride”, this compound displayed an MED of 1 mpk.

In the case of `NC1CCc2scc(F)c2C1` (single isomer, unassigned) [Compound 192, 3-fluoro-4,5,6,7-tetrahydrobenzothiophen-5-amine hydrochloride], the AX result is “ND (^ <4%)”, the HL result is “ND (^ <4%)”, the MS result is recorded as “ND (^ <4%)” and the SH entry is given as “ND (^ <4%)”. Further, for the setting “hydrochloride, 3 mg/kg”, the AD result is recorded as “ND (^ <4%)”, the AG entry is “ND (^ <4%)”, the AN result is reported as “ND (^ <4%)” and the AP entry is “ND (^ <4%)”. Where the note is “hydrochloride, 3 mg/kg”, the CE result was “ND (^ <4%)”, the PS entry was “ND (^ <4%)” and the UK entry was “+++ (≥49%)”. In addition, the MED (hydrochloride) is listed as 3 mpk.

Consider `CNC1CCc2scc(C(F)(F)F)c2C1.Cl` (single isomer, unassigned) [Compound 194, N-methyl-3-(trifluoromethyl)-4,5,6,7-tetrahydrobenzothiophen-5-amine hydrochloride], for which the minimal effective dose is 3 mg/kg, the AD entry is given as “ND (^ <4%)”, the AG result is recorded as “ND (^ <4%)” and the AN entry is “ND (^ <4%)”. In addition, the AX result is reported as “ND (^ <4%)”, the CE result is “ND (^ <4%)”, the HL result is listed as “ND (^ <4%)” and the MS entry is recorded as “ND (^ <4%)”. Besides, the PS result is reported as “ND (^ <4%)” and the SH result was “ND (^ <4%)”. For the setting “hydrochloride, 3 mg/kg”, the AP result is “++++ (≥74%)” and the UK entry is given as “ND (^ <4%)”.

`CNC1CCc2scc(C(F)(F)F)c2C1.Cl` (single isomer, unassigned) [Compound 195, N-methyl-3-(trifluoromethyl)-4,5,6,7-tetrahydrobenzothiophen-5-amine hydrochloride]: the AD entry is given as “ND (^ <4%)”, the AG result is reported as “ND (^ <4%)”, the AN entry was “ND (^ <4%)” and the AX result was “ND (^ <4%)”. Besides, the CE result is on record as “ND (^ <4%)”, the HL result was “ND (^ <4%)”, the MS entry is “ND (^ <4%)” and the PS result is on record as “ND (^ <4%)”. Further, the SH result is listed as “ND (^ <4%)”. Further, where the note is “hydrochloride, 3 mg/kg”, the AP entry is “ND (^ <4%)” and the UK entry is “+ (≥4%)”. For the same compound, where the note is “hydrochloride”, the MED is >3 mpk.
